Measured values: patent publication US20050107447A1, “Novel lysophosphatidic acid receptor agonists and antagonists” (priority 2003, published 2005)
Several values for one entry are separate records, joined by “and”; a condition that tells them apart may be missing. Equal entries are not always repeated. Entries after “also recorded” stand apart in the source; their conditions may differ.

Assays:
LPA2 [1] = biological target: T1, LPA2 (Homo sapiens, UniProt Q9HBW0); assay: Chloride conductance in Xenopus oocytes injected with human LPA2 mRNA; format: cell-based; set-up: expressed in transfected cells; host or cells: Xenopus laevis oocytes injected with mRNA; conditions: 10 μM
Description: (§1) wls-b8L and the other phosphonates were also tested also for activity in three whole cell assays. […] Finally, the activity of wls-b8L in activating a chloride conductance in Xenopus laevis ooctyes was measured.

human platelets = assay: Aggregation of human platelets; format: cell-based; conditions: concentrations up to 10 micromolar
[2] = system: endogenous LPA receptor of Xenopus laevis oocytes; assay: Chloride conductance in Xenopus laevis oocytes, endogenous receptor; format: cell-based; conditions: uninjected oocytes
Description: as §1

LPA3 [3] = biological target: T2, LPA3 (Homo sapiens, UniProt Q9UBY5); assay: Chloride conductance in Xenopus oocytes injected with human LPA3 mRNA; format: cell-based; set-up: expressed in transfected cells; host or cells: Xenopus laevis oocytes injected with mRNA; conditions: 10 μM
T2 sequence (Q9UBY5 1-353): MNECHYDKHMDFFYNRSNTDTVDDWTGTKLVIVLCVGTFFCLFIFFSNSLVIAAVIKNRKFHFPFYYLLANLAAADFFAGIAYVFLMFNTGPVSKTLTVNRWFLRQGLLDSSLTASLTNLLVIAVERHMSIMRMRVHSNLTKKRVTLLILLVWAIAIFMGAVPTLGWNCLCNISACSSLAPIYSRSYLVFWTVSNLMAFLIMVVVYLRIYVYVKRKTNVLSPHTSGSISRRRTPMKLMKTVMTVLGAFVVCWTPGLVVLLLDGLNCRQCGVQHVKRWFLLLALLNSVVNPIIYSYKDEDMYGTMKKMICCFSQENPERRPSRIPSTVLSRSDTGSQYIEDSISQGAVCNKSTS
Description: as §1

LPA1 [4] = biological target: T3, LPA1 (Mus musculus, UniProt P61793); assay: GTP[γ35S] binding, LPA1 transfected HEK293T (or RH7777) cell membranes; format: biochemical; set-up: expressed in transfected cells; host or cells: HEK293T (transient, with G protein plasmids); some results from RH7777 rat hepatoma membranes transfected with LPA1 DNA only
Description: (§2) The appropriate receptor plasmid DNA (encoding mouse LPA1, human LPA2 or human LPA3) was mixed with equal amounts of expression plasmids (pcDNA3) encoding a mutated (C351F) rat Gi2a, cow β1, and γ2 proteins and these DNAs were used to transfect monolayers of HEK293T cells (where ‘T’ indicates expression of the SV-40 virus large T antigen) using the calcium phosphate precipitate method. After about 60 hours, cells were harvested, membranes were prepared, aliquoted and stored at −70° C. until use.
(§3) The GTP[35 γS] assay was performed as described by us previously. Membranes containing 5 ug of protein were incubated in 0.1 ml GTP-binding buffer (in mM: HEPES 50, NaCl 100, MgCl2 10, pH7.5) containing […], […], 0.1 nM GTP[35 γS] (1200 Ci/mmol), and indicated lipid(s) for 30 minutes at 30° C. Samples were analyzed for membrane-bound radionuclide using a Brandel Cell Harvester (Gaithersburg, Md.).
(§4) The X-intercept of the linear transformation is equal to the inverse log of the κ1.
(§5) Membranes prepared from these cells are used to measure GTPγ[^35S] binding as a function of test compound concentration. The resulting dose-response curves provide relative potency (EC50) and efficacy, (Emax) for the test compounds.

LPA1 [5] = biological target: T3, LPA1; assay: cAMP accumulation in RH7777 cells stably expressing LPA1; format: cell-based; set-up: expressed in transfected cells
Description: (§6) Assays for cAMP accumulation were conducted on populations of 5×10^5 cells stimulated with […] in the presence of the phosphodiesterase inhibitor isomethylbutylxanthine (IBMX) for 15 minutes at 30° C. cAMP was measured by automated radioimmunoassay.
Rat hepatoma RH7777 cell monolayers were transfected with the mLPA1 plasmid DNA using the calcium phosphate precipitate method and clonal populations expressing the neomycin phosphotransferase gene were selected by addition of geneticin (G418) to the culture media. The RH7777 cells were grown in monolayers at 37° C. in a 5% CO02/95% air atmosphere in growth media consisting of: 90% MEM, 10% fetal bovine serum, 2 mM glutamine and 1 mM sodium pyruvate.
as §1

MDA MB-231 cells = assay: Calcium mobilization through endogenous LPA receptors in MDA MB-231 cells; format: cell-based; conditions: 1 μM
Description: as §1

LPA2 [6] = biological target: T1, LPA2; assay: GTP[γ35S] binding, LPA2 transfected HEK293T cell membranes; format: biochemical; set-up: expressed in transfected cells; host or cells: HEK293T (transient, calcium phosphate)
Description: as §2, §3, §4, §5

LPA3 [7] = biological target: T2, LPA3; assay: GTP[γ35S] binding, LPA3 transfected HEK293T cell membranes; format: biochemical; set-up: expressed in transfected cells; host or cells: HEK293T (transient, calcium phosphate)
Description: as §2, §3, §4, §5

LPP3 (PAP2b) phosphatase = biological target: T4, LPP3 (PAP2b) phosphatase (Homo sapiens, UniProt O14495); assay: LPP inhibition, competition with 50 nM [32P]LPA; format: biochemical; conditions: for Rank order potency of LPP inhibition: LPP3 vs LPP1 vs LPP2
T4 sequence (O14495 1-311): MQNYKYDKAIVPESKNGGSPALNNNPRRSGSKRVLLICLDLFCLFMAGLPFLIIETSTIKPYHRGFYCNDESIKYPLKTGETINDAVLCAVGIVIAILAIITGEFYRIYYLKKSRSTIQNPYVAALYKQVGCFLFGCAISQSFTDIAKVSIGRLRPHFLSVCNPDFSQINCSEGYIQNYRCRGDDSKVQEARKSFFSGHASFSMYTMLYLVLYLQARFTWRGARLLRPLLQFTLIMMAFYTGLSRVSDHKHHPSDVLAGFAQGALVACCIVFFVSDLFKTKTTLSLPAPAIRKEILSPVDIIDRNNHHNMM
Description: (§7) NOHPP was also tested for activity at the three cloned LPPs. Although the phosphonate head group eliminates the possibility of NOHPP acting as a substrate, it is possible that the compound could be a competitive inhibitor.

LPP2 (PAP2c) phosphatase = biological target: T5, LPP2 (PAP2c) phosphatase (Homo sapiens, UniProt O43688); assay: LPP inhibition, competition with 50 nM [32P]LPA; format: biochemical; conditions: 0.1, 1.0 and 10.0 mM vs 50 nM [32P]LPA
T5 sequence (O43688 1-288): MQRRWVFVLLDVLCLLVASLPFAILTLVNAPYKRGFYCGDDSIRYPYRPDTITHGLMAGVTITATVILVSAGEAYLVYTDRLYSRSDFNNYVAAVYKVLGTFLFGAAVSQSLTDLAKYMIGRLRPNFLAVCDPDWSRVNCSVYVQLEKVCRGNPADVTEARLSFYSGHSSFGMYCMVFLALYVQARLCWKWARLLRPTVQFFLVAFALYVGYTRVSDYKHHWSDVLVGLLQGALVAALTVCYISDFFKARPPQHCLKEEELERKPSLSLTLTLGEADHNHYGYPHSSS
Description: as §7

LPP1 (PAP2a) phosphatase = biological target: T6, LPP1 (PAP2a) phosphatase (Homo sapiens, UniProt O14494); assay: LPP inhibition, competition with 50 nM [32P]LPA; format: biochemical; conditions: 0.1, 1.0 and 10.0 mM vs 50 nM [32P]LPA
T6 sequence (O14494 1-284): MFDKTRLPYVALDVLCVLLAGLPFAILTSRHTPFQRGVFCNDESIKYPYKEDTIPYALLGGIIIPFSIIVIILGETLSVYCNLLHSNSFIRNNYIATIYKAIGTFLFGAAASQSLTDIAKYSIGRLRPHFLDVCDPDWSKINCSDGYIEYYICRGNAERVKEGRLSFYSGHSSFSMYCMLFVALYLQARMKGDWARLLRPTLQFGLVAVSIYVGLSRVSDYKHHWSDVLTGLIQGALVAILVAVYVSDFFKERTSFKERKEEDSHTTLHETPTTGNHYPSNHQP
Description: as §7

[8] = system: HEK293T cells (express LPA1 and LPA3, not LPA2); assay: Block of LPA-induced rises in free intracellular calcium in HEK293T cells (FLIPR); format: cell-based; conditions: specificity control
Excerpt: as §4

[9] = system: renal injury following ischemia-reperfusion (IR); assay: Renal ischemia-reperfusion model; format: in vivo, mouse; conditions: for Plasma creatinine: 24 hrs of reperfusion, n=4
Description: C57BL6 mice (20 gm, 8 wks of age) were used for all studies. The surgical protocol of renal IR has been previously described (Okusa et al., 1999. Am. J. Physiol. (Renal Physiol.) 277: F404-412; Okusa, et al., 2000 Am. J. Physiol. (Renal Physiol.) 279; F809-F818, and Okusa et al., 2001 Kidney Int. 59:2114-2125). For the injury protocol, bilateral flank incisions were made under anesthesia with a regimen that consists of ketamine (100 mg/kg, ip.), xylazine (10 mg/kg, ip.) and acepromazine (1 mg/kg, im.). Renal pedicles were exposed and cross-clamped for 27-32 min. Kidneys were examined for immediate reperfusion following clamp removal. Wounds were closed and mice were returned to cages. […] The mice were sacrificed and the kidneys harvested at 1, 4, 8, 24, 48 hrs, 5 and 7 days. […] Mice were sacrificed following 24 hrs of reperfusion and plasma was obtained for BUN and creatinine.

human LPA1 = biological target: T7, human LPA1 (Homo sapiens, UniProt Q92633); assay: GTP[γ35S] binding, recombinant baculovirus-infected insect Sf9 cell membrane preparation; format: biochemical; conditions: Sf9 membranes
T7 construct: expressed in transfected cells; host or cells: Sf9 insect cells, recombinant baculovirus
Description: (§8) The same activity was determined with human LPA1 using a recombinant baculovirus-infected insect Sf9 cell membrane preparation.

LPA receptors = assay: Whole cell assays of calcium mobilization or inhibition of cAMP accumulation (agonist activity); format: cell-based
Description: as §6
A FLIPR™ (Molecular Devices, Inc.) was used to measure intracellular calcium in A431 and HEK293T cells. A431 cells were seeded (−50,000 cells/well) in 96-well clear bottom black microplates (Corning Costar Corp., Cambridge, Mass.) and left overnight in CO2 incubator at 37° C. HEK293T cells were treated likewise, but seeded onto poly D-lysine coated microplates (Becton Dickinson, Franklin Lakes, N.J.). A431 cells were dye-loaded with 4 μM Fluo-3 AM ester (Molecular Probes Inc., Eugene, Oreg.) in a loading buffer (1×HBSS buffer, pH 7.4, containing 20 mM HEPES, 0.1% BSA, and 2.5 mM probenecid) for 1 hour at 37° C. Cells were then washed four times with the loading buffer and exposed in the FLIPR™ to sets of compounds. HEK293T cells were loaded with 2 μM Fluo-4 AM ester (Molecular Probes Inc., Eugene, Oreg.) in the same loading buffer without probenecid for 30 minutes and washed four times before being exposed to compounds in the FLIPR™. […]
as §8

T1 sequence (Q9HBW0 whole entry): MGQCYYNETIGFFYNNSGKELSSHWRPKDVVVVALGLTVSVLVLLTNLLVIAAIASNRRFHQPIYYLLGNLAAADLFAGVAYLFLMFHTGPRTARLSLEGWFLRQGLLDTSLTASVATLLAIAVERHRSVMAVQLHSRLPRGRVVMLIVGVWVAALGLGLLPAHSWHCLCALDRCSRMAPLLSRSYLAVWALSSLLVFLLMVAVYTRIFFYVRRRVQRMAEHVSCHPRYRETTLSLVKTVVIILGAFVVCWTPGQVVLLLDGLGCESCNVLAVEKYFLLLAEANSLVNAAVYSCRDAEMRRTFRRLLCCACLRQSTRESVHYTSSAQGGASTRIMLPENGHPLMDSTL
T3 sequence (P61793 whole entry): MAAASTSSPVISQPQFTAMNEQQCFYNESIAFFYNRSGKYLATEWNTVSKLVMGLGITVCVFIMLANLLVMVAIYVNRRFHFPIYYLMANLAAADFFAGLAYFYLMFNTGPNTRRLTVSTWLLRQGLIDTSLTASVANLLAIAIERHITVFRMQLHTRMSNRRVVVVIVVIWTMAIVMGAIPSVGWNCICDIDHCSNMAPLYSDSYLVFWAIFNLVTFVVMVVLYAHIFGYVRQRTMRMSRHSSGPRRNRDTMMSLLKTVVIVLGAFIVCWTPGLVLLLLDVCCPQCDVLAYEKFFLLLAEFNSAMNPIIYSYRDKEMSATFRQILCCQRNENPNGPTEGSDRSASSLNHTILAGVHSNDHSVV
T7 sequence (Q92633 whole entry): as the sequence (P61793 whole entry) above, with A4I, S8I, Q22P, Y40H, V61I, D193E, H194N, V269I, N331S, N335T counted along it

CCCCCCCC/C=C\CCCCCCCC(=O)NCCCP(=O)(O)O [wls-b8L, (9Z)-N-(3-phosphonopropyl)Octadec-9-enamide]
Activation of chloride conductance (LPA2 [1]): very modest response
Aggregation of human platelets (human platelets): does not elicit aggregation
Activation of chloride conductance [2]: does not evoke this response
Activation of chloride conductance (LPA3 [3]): very modest response
Receptor-type selectivity of agonist activity (LPA1 vs LPA2, LPA3) (LPA1 [4]; GTPγ[35S] binding): more potent and efficacious at LPA1 than at either LPA2 or LPA3; also recorded: distinctly more selective
Inhibition of cAMP accumulation (agonist efficacy) (LPA1 [5]; concentration of 1 μM): fully efficacious
Calcium mobilization (MDA MB-231 cells): inactive

CCCCCCCC/C=C\CCCCCCCC(=O)NCCC(O)P(=O)(O)O (racemic) [NOHPP, (9Z)-N-(rac-3-hydroxy-3-phosphonopropyl)Octadec-9-enamide]
Agonist activity/efficacy at LPA2 (LPA2 [6]; compared to LPA): as efficacious as; also recorded: fully efficacious
Potency at LPA2 relative to LPA (LPA2 [6]; vs 1-oleoyl LPA): somewhat less potent; also recorded: about one log order less potent
Agonist activity/efficacy at LPA1 (LPA1 [4]; compared to LPA): as efficacious as; also recorded: fully efficacious
Potency at LPA1 relative to LPA (LPA1 [4]; vs 1-oleoyl LPA): somewhat less potent; also recorded: about one log order less potent
Agonist activity/efficacy at LPA3 (LPA3 [7]; compared to LPA): far less efficacious; also recorded: little activity
Potency at LPA3 relative to LPA (LPA3 [7]; vs 1-oleoyl LPA): distinctly less potent; also recorded: greater than two log orders less potent
Inhibition of LPP3 (LPP3 (PAP2b) phosphatase; 0.1, 1.0 and 10.0 mM vs 50 nM [32P]LPA): inhibited
Rank order potency of LPP inhibition (LPP3 (PAP2b) phosphatase): LPP3>LPP1>>LPP2
Rank order potency of LPP inhibition (LPP3 (PAP2b) phosphatase; listed as VPC12031): markedly better at the PAP2b (LPP3) than PAP2a (LPP1)
Inhibition of LPP2 (LPP2 (PAP2c) phosphatase): inactive
Inhibition of LPP1 (LPP1 (PAP2a) phosphatase): to a lesser extent

CCCCCCCC/C=C\CCCCCCCC(=O)N[C@H](COP(=O)(O)O)Cc1ccc(OCc2ccccc2)cc1 [VPC12249]
Antagonism of ATP-evoked calcium transients [8]: lack of antagonism
Plasma creatinine ([9]; 0.01 mg/kg/2 hrs): 1.06±0.25
H and E sections, tissue preservation ([9]; 1 mg/kg/2 hr): marked degree of tissue preservation
Plasma creatinine ([9]; 1.0 mg/kg/2 hrs): 0.31±0.4
Antagonism of LPA-induced GTP[γ35S] binding at LPA2 (LPA2 [6]): lack of antagonist activity
Antagonist activity at human LPA1 (human LPA1): same activity
Agonist activity in whole cell assays (LPA receptors): completely devoid of agonist activity
Block of LPA1-mediated inhibition of forskolin-induced cAMP increase (LPA1 [5]; RH7777 cells stably expressing LPA1): inhibited
Antagonism of LPA-induced GTP[γ35S] binding at LPA3 (LPA3 [7]): surmountable antagonist
Ki (LPA3 [7]; Schild regression, block of LPA-induced GTP[γ35S] binding): 428 nM and ~425 nM
